# Read-outs that look alike come from different tables or passages of the source. Marks after values point to notes of the source that are not given here.
# Columns and labels:
# SV40 TAg ATPase activity = SV40 TAg ATPase activity (Simian virus 40, UniProt P03070); test: biochemical; assay type: biochemical; conditions: for inhibition of TAg ATPase activity (SAR screen): 30 μM compound; for potency of TAg ATPase inhibition compared with MAL2-11B: 100 μM compound; for inhibition at 3 µM: read-out: inhibition of TAg ATPase activity; for inhibition at 30 µM: read-out: inhibition of the ATPase activity of TAg
# SV40 TAg ATPase activity, sequence (P03070 whole entry): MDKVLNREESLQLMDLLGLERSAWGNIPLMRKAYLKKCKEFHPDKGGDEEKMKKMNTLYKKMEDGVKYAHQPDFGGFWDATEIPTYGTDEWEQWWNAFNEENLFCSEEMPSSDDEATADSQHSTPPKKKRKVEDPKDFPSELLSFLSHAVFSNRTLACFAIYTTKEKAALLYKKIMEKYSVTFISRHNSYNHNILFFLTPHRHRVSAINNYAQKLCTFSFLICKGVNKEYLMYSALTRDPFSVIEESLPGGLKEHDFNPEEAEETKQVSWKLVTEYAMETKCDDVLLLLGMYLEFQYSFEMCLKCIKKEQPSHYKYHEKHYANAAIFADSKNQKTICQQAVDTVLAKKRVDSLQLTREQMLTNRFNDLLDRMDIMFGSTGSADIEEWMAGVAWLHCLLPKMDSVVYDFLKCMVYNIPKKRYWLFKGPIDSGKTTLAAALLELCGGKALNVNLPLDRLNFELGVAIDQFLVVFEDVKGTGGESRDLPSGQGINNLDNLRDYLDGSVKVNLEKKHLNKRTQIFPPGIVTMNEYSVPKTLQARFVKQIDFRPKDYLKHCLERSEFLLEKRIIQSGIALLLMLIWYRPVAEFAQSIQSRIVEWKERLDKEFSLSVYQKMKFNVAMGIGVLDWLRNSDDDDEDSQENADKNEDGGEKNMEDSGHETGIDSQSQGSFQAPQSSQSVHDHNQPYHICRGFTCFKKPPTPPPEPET
# SV40 [1] = test: SV40 plaque assay in CV1 cells; assay type: cell-based, Simian Virus 40; conditions: 2 days; for inhibition of viral replication relative to the DMSO control (plaque assay): 30 μM
# SV40 TAg [2] = target: T1, SV40 TAg (Simian virus 40, UniProt P03070); assay type: biochemical
# T1 sequence (P03070 whole entry): as above
# SV40 [3] = test: SV40 DNA replication by qPCR in CV1 cells; assay type: cell-based, Simian Virus 40; conditions: 48 hpi; for inhibition of DNA replication: 30 μM
# CV1 cells = test: MTS viability assay; assay type: cell-based, monkey; conditions: CV1 cells ~90% confluency, 48 h
# BKV = BKV DNA replication by qPCR in Vero cells; assay type: cell-based, BK virus; conditions: 10 μM, 5 d
# SV40 TAg [4] = target: T1, SV40 TAg; test: TAg aggregation under ATPase assay conditions; conditions: utilized ATPase assay conditions
# [5] = TAg in the presence of 3 μM compound
smiles,measurement,setting,value
"Oc1c(Br)cc(Cl)cc1Cc1cc(Cl)cc(Br)c1O [6,6'-methylenebis(2-bromo-4-chlorophenol)]",inhibition of TAg ATPase activity (SAR screen),SV40 TAg ATPase activity,inhibited TAg ATPase activity
"Oc1c(Cl)cc(Cl)cc1Sc1cc(Cl)cc(Cl)c1O [bithionol, Bithionol]",inhibition of viral replication relative to the DMSO control (plaque assay),SV40 [1],~100 fold
same,Vmax,SV40 TAg [2]; [5],10 ^‡ pmol/min
same,inhibition of DNA replication,SV40 [3],~ 100 fold
same,MI50 (metabolic index-50),CV1 cells,68 µM
same,inhibition of BKV replication,BKV,somewhat less effective
same,potency of TAg ATPase inhibition compared with MAL2-11B,SV40 TAg ATPase activity,significantly more potent inhibitors than MAL2-11B
same,inhibition at 3 µM,SV40 TAg ATPase activity,~50%
same,inhibition at 30 µM,SV40 TAg ATPase activity,~80%
Nc1ncnc2c1ncn2[C@@H]1O[C@H](COP(=O)(O)OP(=O)(O)O)[C@@H](O)[C@H]1O [ADP],Vmax,SV40 TAg [2]; TAg in the presence of 150 μM ADP,2.9 ^‡ pmol/min
"Oc1c(Br)cc(Cl)cc1Sc1cc(Cl)cc(Br)c1O [6,6'-thiobis(2-bromo-4-chlorophenol)]",inhibition of TAg ATPase activity (SAR screen),SV40 TAg ATPase activity,inhibited TAg ATPase activity
CC1=C(C(=O)OCc2ccccc2)C(c2ccc(-c3ccccc3)cc2)NC(=O)N1CCCCCC(=O)O (stereo not drawn) [MAL2-11B],reduction of the number of plaques,SV40 [1]; 100 μM,~60%
same,inhibition of DNA replication in culture,SV40 [3]; 100 μM,~ 60%
O=C1C(Cl)=C(Cl)C(=O)C(Cl)=C1Cl [chloranil],TAg aggregation,SV40 TAg [4],caused TAg to aggregate
same,potency of TAg ATPase inhibition compared with MAL2-11B,SV40 TAg ATPase activity,significantly more potent inhibitors than MAL2-11B
Oc1c(Cl)cc(Cl)c(Cl)c1Cc1c(O)c(Cl)cc(Cl)c1Cl [hexachlorophene],inhibition of viral replication relative to the DMSO control (plaque assay),SV40 [1],~100 fold
same,Vmax,SV40 TAg [2]; [5],6.6 ^‡ pmol/min
same,inhibition of DNA replication,SV40 [3],~ 100 fold
same,MI50 95% confidence range based on the sigmoidal fit,CV1 cells,29 to 71 µM
same,MI50 (metabolic index-50),CV1 cells,55 µM
same,inhibition of BKV replication,BKV,maintained its potent inhibition
same,potency of TAg ATPase inhibition compared with MAL2-11B,SV40 TAg ATPase activity,significantly more potent inhibitors than MAL2-11B
same,inhibition at 3 µM,SV40 TAg ATPase activity,~50%
same,inhibition at 30 µM,SV40 TAg ATPase activity,~80%
